The source made the active and inactive calls. No rule for the calls is given here.
What was measured:
[1] = tested on: S. cerevisiae vps1Δ apl2Δ growth inhibition, dose response; test: vps1Δ apl2Δ double mutant yeast growth inhibitors – S. cerevisiae, background strain comparison, post-Golgi transport modulator project, dose response (AID 788)
[2] = tested on: S. cerevisiae wild-type background strain growth inhibition; test: as above; settings: S. cerevisiae vps1Δ apl2Δ growth inhibition, dose response; measured here: wild-type background strain growth

With `Cc1ccc(/C=N/n2cnc3sc(-c4ccccc4)cc3c2=O)o1` the IC50 [1] was > 10 µM (inactive) and the IC50 [2] was > 10 µM.
For `Clc1ccc(Cn2nnc(-c3ccc(CN4CCOCC4)cc3)n2)cc1`, the IC50 [1] was 1.33 µM and the IC50 [2] was > 10 µM.
With `CCCCC1(CCCC)C(=O)NC(=Nc2cccc(C)c2)NC1=O` the IC50 [1] was > 10 µM (inactive) and the IC50 [2] was > 10 µM.
In the case of `Cc1ccnc(N2C(=O)c3cccc4c([N+](=O)[O-])ccc(c34)C2=O)c1`, the IC50 [1] is reported as 5.37 µM (inactive) and the IC50 [2] is reported as 4.22 µM.
With `Cc1ccc(SC(=O)COc2ccc(C)c(C)c2)cc1` the IC50 [1] was > 10 µM (inactive) and the IC50 [2] was > 10 µM.
In the case of `COC(=O)c1ccc(NC(=O)c2cn(-c3ccccc3)nc2-c2ccncc2)cc1`, the IC50 [1] is reported as > 10 µM (inactive) and the IC50 [2] is reported as > 10 µM.
`Clc1ccc2[nH]c3c(NCC4CCCO4)ncnc3c2c1` (stereo not drawn) was tested, and the IC50 [1] was > 10 µM (inactive) and the IC50 [2] was > 10 µM.
`Cn1c(=O)c2nc(NCc3ccccc3)cnc2n(C)c1=O` was tested, and the IC50 [1] was > 10 µM (inactive) and the IC50 [2] was > 10 µM.
`CCCCS(=O)(=O)/C=C\C=C/S(=O)(=O)CCCC` was tested, and the IC50 [1] was 12.1 µM and the IC50 [2] was 13.9 µM.
`O=C(OCn1ncc(Cl)c(Cl)c1=O)c1ccc(C(F)(F)F)cc1` was tested, and the IC50 [1] was 23.2 µM and the IC50 [2] was > 10 µM.
With `Nc1cc(N)c(OCC(F)(F)F)cc1OCC(F)(F)F` the IC50 [1] was > 10 µM (inactive) and the IC50 [2] was > 10 µM.
For `CCCCCOc1ccc(Cl)cc1CN1CCOCC1`, the IC50 [1] was 20.6 µM and the IC50 [2] was > 10 µM.
With `C=CCc1ccc(OCCCCN2CC(C)OC(C)C2)c(OC)c1` (stereo not drawn) the IC50 [1] was 2.33 µM and the IC50 [2] was > 10 µM.
Compound `O=[N+]([O-])c1ccc(N/N=C/c2c[nH]c3ccccc23)c(S(=O)(=O)Nc2ccc(Cl)cc2)c1` has an IC50 [1] of 2.15 µM and an IC50 [2] of 2.5 µM.
With `CC1=CC(C)(C)Nc2ccc(OC(=O)CN3C(=O)c4cccc5cccc(c45)C3=O)cc21` the IC50 [1] was > 10 µM (inactive) and the IC50 [2] was > 10 µM.
For `Cc1nc(NC(=O)c2ccccc2)sc1-c1csc(Nc2ccc(F)cc2)n1`, the IC50 [1] was > 10 µM (inactive) and the IC50 [2] was > 10 µM.
With `N[C@@H](Cc1c[nH]c2ccccc12)c1nnc(SCc2ccc(Cl)cc2)o1` the IC50 [1] was 24.8 µM (inactive) and the IC50 [2] was 20.4 µM.
With `CC1CC(C)CN(CCOc2ccc(Cl)cc2Cl)C1` (stereo not drawn) the IC50 [1] was 6.68 µM and the IC50 [2] was > 10 µM.
`Cc1cc(O)c(/C=N/Nc2ccc(Cl)cc2)c(=O)o1` showed an IC50 [1] of 3.33 µM and an IC50 [2] of 4.69 µM.
With `CC(C)(C)n1nnnc1CN(Cc1cccnc1)Cc1ccccc1Cl` the IC50 [1] was > 10 µM (inactive) and the IC50 [2] was > 10 µM.
With `O=C(NCc1ccccc1)NS(=O)(=O)c1ccccc1Cl` the IC50 [1] was > 10 µM (inactive) and the IC50 [2] was > 10 µM.
`NC(=O)c1c(NC(=O)CN2C(=O)CCC2=O)sc2c1CCCCC2` was tested, and the IC50 [1] was > 10 µM (inactive) and the IC50 [2] was > 10 µM.
For `CCCOc1ccccc1N/C(=N/c1nc(C)cc(C)n1)NC(=O)COc1ccc(OC)cc1`, the IC50 [1] was > 10 µM (inactive) and the IC50 [2] was > 10 µM.
Compound `COc1cccc(C(=O)N2CCN(C3CCC(c4ccccc4)CC3)CC2)c1OC` (stereo not drawn) has an IC50 [1] of 5.37 µM and an IC50 [2] of 23.9 µM.
For `Cc1ccc(S(=O)(=O)N(CC(=O)N2CCC(C(N)=O)CC2)c2cccc(C(F)(F)F)c2)cc1`, the IC50 [1] was > 10 µM (inactive) and the IC50 [2] was > 10 µM.
For `O=C(Cn1ncc2c3ccccc3n(Cc3ccccc3F)c2c1=O)N1CCC2(CC1)OCCO2`, the IC50 [1] was > 10 µM (inactive) and the IC50 [2] was > 10 µM.
In the case of `Cc1cc2ncn(CC(O)COc3cccc(C(=O)O)c3)c2cc1C` (stereo not drawn), the IC50 [1] is reported as > 10 µM (inactive) and the IC50 [2] is reported as > 10 µM.
In the case of `O=C1c2ccccc2C(=O)c2c1oc(C(F)(F)F)c2C(=O)c1ccccc1`, the IC50 [1] is reported as 2.92 µM (inactive) and the IC50 [2] is reported as 2.2 µM.
In the case of `Cc1cccc(-n2c(N)c(C(=O)NCCN3CCOCC3)c3nc4ccccc4nc32)c1`, the IC50 [1] is reported as > 10 µM (inactive) and the IC50 [2] is reported as > 10 µM.
`C=C(C)C1CC=C(CN2CCC(C(=O)OCC)CC2)CC1` (stereo not drawn) was tested, and the IC50 [1] was 13.5 µM and the IC50 [2] was > 10 µM.
Work on `O=C(Nc1nc(-c2ccccn2)cs1)c1ncc(Cl)c(Cl)c1Cl` yielded an IC50 [1] of 4.41 µM and an IC50 [2] of 13.3 µM.
In the case of `COCCCNc1ccnc2c(Cl)cccc12`, the IC50 [1] is reported as > 10 µM (inactive) and the IC50 [2] is reported as > 10 µM.
In the case of `CCOc1ccc(-c2[nH]ncc2Oc2ccccc2OCC)c(O)c1`, the IC50 [1] is reported as 7.98 µM and the IC50 [2] is reported as 16 µM.
In the case of `O=S(=O)(c1ccc(Cl)cc1)N1CCN(C2CCN(Cc3ccccc3)CC2)CC1`, the IC50 [1] is reported as 5.15 µM and the IC50 [2] is reported as > 10 µM.
`O=C(NCC(c1cccnc1)N1CCN(c2ccccc2)CC1)c1ccc2c(c1)OCO2` (stereo not drawn) was tested, and the IC50 [1] was > 10 µM (inactive) and the IC50 [2] was > 10 µM.
With `COc1cccc(-c2cc(C(=O)N3CCN(C(c4ccccc4)c4ccccc4)CC3)no2)c1` the IC50 [1] was > 10 µM (inactive) and the IC50 [2] was > 10 µM.
With `c1coc(CNc2nc(N3CCCCC3)nc3ccccc23)c1` the IC50 [1] was > 10 µM (inactive) and the IC50 [2] was > 10 µM.
`O=C(NCC(c1cccnc1)N1CCN(c2ccccc2)CC1)C1CCCCC1` (stereo not drawn) was tested, and the IC50 [1] was > 10 µM (inactive) and the IC50 [2] was > 10 µM.
In the case of `O=C(NCc1ccc2c(c1)OCO2)C1CCCN1C(=O)Nc1ccccc1` (stereo not drawn), the IC50 [1] is reported as > 10 µM (inactive) and the IC50 [2] is reported as > 10 µM.
`Cc1ccc(S(=O)(=O)c2c(C)nn(C(C)(C)C)c2OC(=O)c2ccc(Br)o2)cc1` was tested, and the IC50 [1] was > 10 µM (inactive) and the IC50 [2] was > 10 µM.
In the case of `CC(C)OC(=O)CSc1nnc(-c2ccc(Cl)cc2)n1N`, the IC50 [1] is reported as > 10 µM (inactive) and the IC50 [2] is reported as > 10 µM.
For `CCC(C)c1ccc(OCCCCN2CCOCC2)cc1` (stereo not drawn), the IC50 [1] was 4.71 µM and the IC50 [2] was > 10 µM.
For `Cc1ccc(C(=O)c2c(NC(=O)c3ccncc3)sc3c2CCCC3)cc1`, the IC50 [1] was 16.9 µM and the IC50 [2] was > 10 µM.
`CCC(C)(C)NC(=O)CN(C(=O)CCC(=O)Nc1ccccn1)c1ccc(F)c(Cl)c1` was tested, and the IC50 [1] was > 10 µM (inactive) and the IC50 [2] was > 10 µM.
With `Cc1ccc(Cl)c(OCCCCN(C)Cc2ccccc2)c1` the IC50 [1] was 3.13 µM and the IC50 [2] was > 10 µM.
With `O=C(NC(C(=O)c1ccccc1)N1CCCCC1)c1ccccc1` (stereo not drawn) the IC50 [1] was > 10 µM (inactive) and the IC50 [2] was > 10 µM.
`O=C(NC1CCCC1)C(c1ccsc1)N(C(=O)Cc1cccs1)c1ccc(F)cc1` (stereo not drawn) was tested, and the IC50 [1] was > 10 µM (inactive) and the IC50 [2] was > 10 µM.
In the case of `CC(C)Cc1[nH]c(=O)c(C#N)c2c1CCC2`, the IC50 [1] is reported as > 10 µM (inactive) and the IC50 [2] is reported as > 10 µM.
`O=C(COc1ccc(Cl)cc1Cl)NCCCN1CCOCC1` was tested, and the IC50 [1] was 20.8 µM and the IC50 [2] was > 10 µM.
For `O=c1c2cccc3c2c(nn1CN1CCOCC1)-c1ccccc1-3`, the IC50 [1] was > 10 µM (inactive) and the IC50 [2] was > 10 µM.
For `CCn1c(=O)[nH]c2cc(C(=O)N3CCN(c4ccccc4)CC3)ccc2c1=O`, the IC50 [1] was > 10 µM (inactive) and the IC50 [2] was > 10 µM.
In the case of `Cn1c(=O)cc(NCc2ccccc2)[nH]c1=O`, the IC50 [1] is reported as > 10 µM (inactive) and the IC50 [2] is reported as > 10 µM.
`CCOC(=O)C1CCN(Cc2cnc(Oc3ccc(Cl)cc3C)s2)CC1` was tested, and the IC50 [1] was 26 µM and the IC50 [2] was > 10 µM.
`Cc1ccc(S(=O)(=O)NC(CC(C)C)C(=O)Oc2ccc3c4c(c(=O)oc3c2)CCC4)cc1` (stereo not drawn) was tested, and the IC50 [1] was > 10 µM (inactive) and the IC50 [2] was > 10 µM.
With `Clc1cc(Br)ccc1OCCOCCN1CCOCC1` the IC50 [1] was 20.3 µM and the IC50 [2] was > 10 µM.
With `O=C(Nc1nnc(-c2ccc3c(c2)CCCC3)o1)c1ccc(Cl)cc1Cl` the IC50 [1] was 6.32 µM (inactive) and the IC50 [2] was 3.46 µM.
For `COc1ccc(C2CC(=O)C3=C(C2)NC(C)=C(C(=O)Nc2ccccc2C)C3c2coc3ccc(C)cc3c2=O)cc1OC` (stereo not drawn), the IC50 [1] was > 10 µM (inactive) and the IC50 [2] was > 10 µM.
With `O=C1OCC2=C1C(c1ccc(F)cc1)Sc1ccccc1N2` (stereo not drawn) the IC50 [1] was 23.9 µM and the IC50 [2] was > 10 µM.
With `Cc1nn(Cc2cccc(C(=O)NC(C)c3ccc(C(C)(C)C)cc3)c2)c(C)c1[N+](=O)[O-]` (stereo not drawn) the IC50 [1] was > 10 µM (inactive) and the IC50 [2] was > 10 µM.

From PubChem BioAssay AID788 (SRMLSC, 2007)
